Laboratory results as given in patent publication US20250032476A1, “ALPHA-2A ADRENERGIC RECEPTOR MODULATORS AND USES THEREOF” (The Regents of the University of California, priority 2021, published 2025).
Read-outs that look alike come from different tables or passages of the source.

How the values were obtained:
[1] = system: SNI mice; experiment: Spared-nerve injury (SNI) model of neuropathic pain, von Frey mechanical thresholds; assay type: in vivo
Experimental: Spared-nerve injury (SNI) model of neuropathic pain. Under isoflurane anesthesia, two of the three branches of the sciatic nerve were ligated and transected distally, leaving the sural nerve intact. Behavior was tested 7 to 14 days after injury and in situ hybridization was performed one week post-injury.

[2] = target: α2AAR F427^7.39 mutant (Homo sapiens (Human), UniProt P08913, F427A); experiment: Gi activation (BRET) at α2AAR F427^7.39 mutant; assay type: cell-based
Chain of α2AAR F427^7.39 mutant (P08913 whole entry F427A): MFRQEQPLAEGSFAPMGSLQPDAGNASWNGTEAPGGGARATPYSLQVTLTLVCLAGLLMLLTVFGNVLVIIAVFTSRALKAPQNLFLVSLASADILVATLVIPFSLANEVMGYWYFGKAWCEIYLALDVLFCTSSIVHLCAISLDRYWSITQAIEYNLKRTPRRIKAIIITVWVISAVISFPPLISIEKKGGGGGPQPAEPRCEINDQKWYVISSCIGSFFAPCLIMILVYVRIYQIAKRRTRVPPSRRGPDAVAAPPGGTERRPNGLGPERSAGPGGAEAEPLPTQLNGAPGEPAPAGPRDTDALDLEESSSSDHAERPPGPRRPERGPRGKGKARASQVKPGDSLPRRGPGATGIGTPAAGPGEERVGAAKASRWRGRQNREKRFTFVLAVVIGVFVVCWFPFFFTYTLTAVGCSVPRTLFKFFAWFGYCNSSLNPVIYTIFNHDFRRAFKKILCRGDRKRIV
Experimental: Investigating the sensitivity of selected ligands to the receptor mutants α2AAR-D128^3.32A, α2AAR-D128^3.32T, α2AAR-D128^3.32L, α2AAR-S215^5.42A, α2AAR-Y409^6.55A, α2AAR-Y409^6.55T, α2AAR-Y409^6.55F, α2AAR-F427^7.39F, α2AAR-Y431^7.43A, and α2AAR-Y431^7.43F was determined by monitored G protein stimulation as described above transfecting the appropriate receptor together with Gαi1-RLucII and Gβ1/Gγ1-GFP10. […] Three to ten experiments were done in duplicate.
The sensitivity of selected ligands to the receptor mutants α2AAR-D128^3.32A, α2AAR-D128^3.32T, α2AAR-D128^3.32L, α2AAR-S215^5.42A, α2AAR-Y409^6.55A, α2AAR-Y409^6.55T, α2AAR-Y409^6.55F, α2AAR-F427^7.39F, α2AAR-Y431^7.43A, and α2AAR-Y431^7.43F was monitored by G protein activation as described above transfecting the appropriate receptor together with Gαi1-RLucII and Gβ1/Gγ2-GFP10. […] Similarly, the effect of the α2AAR-D128^3.32A, α2AAR-S215^5.42A, α2AAR-Y409^6.55A, α2AAR-Y409^6.55F, α2AAR-F427^7.39F, α2AAR-Y431^7.43A, and α2AAR-Y431^7.43F mutations on arrestin recruitment was evaluated as described above transfecting the appropriate receptor together with CAAX-rGFP, GRK2 and β-arrestin-2-RLucII. Data was analyzed as ligand induced changes in BRET compared to vehicle (deltaBRET). Three to seven experiments were done in duplicate.

[3] = target: T1, human α2AAR (Homo sapiens (Human), UniProt P08913); experiment: β-arrestin-2 recruitment, BRET biosensor assay in HEK293T cells; conditions: HEK-293T
T1 sequence (P08913 whole entry): as the sequence (P08913 whole entry F427A) above, with A427F counted along it

[4] = target: T1, human α2AAR; experiment: DiscoverX HitHunter cAMP G-protein activation assay
[5] = target: T1, human α2AAR; experiment: α2AAR internalization assay with rGFP-CAAX and rGFP-FYVE biosensors; assay type: cell-based; conditions: α2AAR-RlucII/rGFP-CAAX biosensor
[6] = target: T1, human α2AAR; experiment: Radioligand competition binding to human α2AAR (HEK293T membranes, [3H]RX82,1002); conditions: human α2AAR
[7] = analgesia in vivo; conditions: result in words, Table 6

Gi activity at F427^7.39 substitution [2]: eliminated
Emax ([3]; read-out: β-Arr-2 Emax @ 0.1 mM): 10%
Emax at 100 µM ([3]; read-out: β-arrestin-2 Emax @ 0.1 mM): 10 ± 7%
EC50 [4]: 18 nM
Emax ([4]; read-out: Gi/o Emax): 96%
Disappearance of α2AAR from the plasma membrane (internalization) [5]: no effect
Ki ([6]; mean ± SEM (Table 3), read-out: Ki): 37 ± 5.1 nM
Ki ([6]; mean ± s.e.m., read-out: Ki for α2AAR): 37 ± 5.1 nM
SMILES: Fc1cccc2c(Nc3ccncc3)cccc12 [Compound 7075, N-(5-fluoronaphthalen-1-yl)pyridin-4-amine]
Effect of atipamezole on the agonist's effect in SNI mice ([1]; atipamezole 2 mg/kg, 15 minutes prior): reversed by atipamezole
Mechanical thresholds / anti-allodynic effect in SNI mice ([1]; systemic injection): exhibited anti-allodynic effects
Reversal of mechanical hypersensitivity in SNI mice ([1]; systemic injection): completely reversed the mechanical hypersensitivity
analgesic in vivo [7]: analgesic in vivo
